Laboratory results from ChEMBL document CHEMBL1153424, “Discovery of 4-(benzylaminomethylene)isoquinoline-1,3-(2H,4H)-diones and 4-[(pyridylmethyl)aminomethylene]isoquinoline-1,3-(2H,4H)-diones as potent and selective inhibitors of the cyclin-dependent kinase 4” (J Med Chem, 2009).

What was measured:
[1] = biological target: Cyclin-dependent kinase 1/cyclin B1 (Homo sapiens, UniProt P06493); experiment: (§1) Inhibition of CDK1/Cyclin B1 assessed as inhibition of retinoblastoma susceptibility gene product phosphorylation
MCF7 = experiment: cells; details: Homo sapiens, MCF7, 72 h
Description: Cytotoxicity against human MCF7 cells after 3 days by SRB assay

[2] = biological target: Cyclin-dependent kinase 4/cyclin D1 (Homo sapiens, UniProt P11802); experiment: (§2) Inhibition of CDK4/Cyclin D1 assessed as inhibition of retinoblastoma susceptibility gene product phosphorylation; format: protein-complex assay
HCT-116 = experiment: cells; details: Homo sapiens, HCT-116, 72 h
Description: Cytotoxicity against human HCT116 cells after 3 days by SRB assay

[3] = Metabolic stability in Sprague-Dawley rat liver microsome assessed as half life after 15 mins using NADPH cofactor; format: ADME; details: liver microsomes
[4] = Metabolic stability in Sprague-Dawley rat liver microsome assessed as half life after 15 mins using NADPH/UDPGA cofactor; format: ADME; details: liver microsomes
[5] = biological target: Cyclin-dependent kinase 2 (Homo sapiens, UniProt P24941); experiment: Inhibition of CDK2/Cyclin E assessed as inhibition of retinoblastoma susceptibility gene product phosphorylation
[6] = biological target: Cyclin-dependent kinase 1/cyclin B1 (Homo sapiens, UniProt P06493+P14635); experiment: as §1
[7] = biological target: MAP kinase-activated protein kinase 2 (Homo sapiens, UniProt P49137); experiment: Inhibition of MK2
[8] = Inhibition of p70S6
[9] = biological target: Mitogen-activated protein kinase kinase kinase 8 (Homo sapiens, UniProt P41279); experiment: Inhibition of Tpl2
[10] = biological target: Tyrosine-protein kinase Lyn (Homo sapiens, UniProt P07948); experiment: Inhibition of LYN
[11] = biological target: Proto-oncogene tyrosine-protein kinase Src (Homo sapiens, UniProt P12931); experiment: Inhibition of Src
[12] = biological target: Tyrosine-protein kinase Lck (Homo sapiens, UniProt P06239); experiment: Inhibition of LCK
[13] = biological target: RAC-alpha serine/threonine-protein kinase (Homo sapiens, UniProt P31749); experiment: Inhibition of AKT
[14] = biological target: Protein kinase C theta type (Homo sapiens, UniProt Q04759); experiment: Inhibition of PKCtheta
[15] = biological target: Signal transducer and activator of transcription 3 (Homo sapiens, UniProt P40763); experiment: Inhibition of STAT3
[16] = biological target: Serine/threonine-protein kinase mTOR (Homo sapiens, UniProt P42345); experiment: Inhibition of mTOR
[17] = biological target: Cyclin-dependent kinase 4/cyclin D1 (Homo sapiens, UniProt P11802+P24385); experiment: as §2; format: protein-complex assay
[18] = Selectivity for CDK4/Cyclin D1 over […]
[19] = Selectivity for CDK4/Cyclin D1 over CDK2/Cyclin E

Sequence of Cyclin-dependent kinase 1/cyclin B1 (Homo sapiens, UniProt P06493+P14635) (P06493 whole entry): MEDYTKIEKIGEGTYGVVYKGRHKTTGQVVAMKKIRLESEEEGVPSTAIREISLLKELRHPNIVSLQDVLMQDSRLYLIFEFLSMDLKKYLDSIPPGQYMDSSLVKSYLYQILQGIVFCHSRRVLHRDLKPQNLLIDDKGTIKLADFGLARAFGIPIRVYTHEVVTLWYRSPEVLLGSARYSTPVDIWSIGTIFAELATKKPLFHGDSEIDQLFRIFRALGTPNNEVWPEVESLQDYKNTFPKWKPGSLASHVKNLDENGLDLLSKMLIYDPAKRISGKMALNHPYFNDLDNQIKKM
Sequence of Cyclin-dependent kinase 1/cyclin B1 (Homo sapiens, UniProt P06493+P14635) (P14635 whole entry): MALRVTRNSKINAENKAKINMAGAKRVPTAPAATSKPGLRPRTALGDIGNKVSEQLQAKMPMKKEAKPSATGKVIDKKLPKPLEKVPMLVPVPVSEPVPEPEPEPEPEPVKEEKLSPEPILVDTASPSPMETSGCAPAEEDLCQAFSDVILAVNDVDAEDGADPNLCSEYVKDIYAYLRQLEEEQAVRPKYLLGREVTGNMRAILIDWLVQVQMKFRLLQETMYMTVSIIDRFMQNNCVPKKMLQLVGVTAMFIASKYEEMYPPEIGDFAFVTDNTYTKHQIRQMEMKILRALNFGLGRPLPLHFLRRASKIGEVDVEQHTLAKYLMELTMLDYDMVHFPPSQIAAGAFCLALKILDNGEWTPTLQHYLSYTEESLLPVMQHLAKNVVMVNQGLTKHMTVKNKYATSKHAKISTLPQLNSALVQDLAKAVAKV
Sequence of Cyclin-dependent kinase 1/cyclin B1 (Homo sapiens, UniProt P06493) (P06493 whole entry): as the sequence (P06493 whole entry) above
Sequence of Cyclin-dependent kinase 1/cyclin B1 (Homo sapiens, UniProt P06493) (P14635 whole entry, further chain): as the sequence (P14635 whole entry) above
Sequence of Cyclin-dependent kinase 4/cyclin D1 (Homo sapiens, UniProt P11802) (P11802 whole entry): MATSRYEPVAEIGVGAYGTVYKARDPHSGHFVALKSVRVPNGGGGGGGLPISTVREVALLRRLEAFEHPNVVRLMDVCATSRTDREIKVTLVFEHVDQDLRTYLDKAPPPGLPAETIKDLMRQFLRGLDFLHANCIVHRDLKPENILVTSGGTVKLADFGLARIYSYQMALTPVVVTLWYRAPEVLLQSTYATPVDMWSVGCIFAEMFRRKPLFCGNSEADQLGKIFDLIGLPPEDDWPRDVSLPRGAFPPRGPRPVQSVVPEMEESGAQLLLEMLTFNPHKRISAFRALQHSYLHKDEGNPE
Sequence of Cyclin-dependent kinase 4/cyclin D1 (Homo sapiens, UniProt P11802) (P24385 whole entry, further chain): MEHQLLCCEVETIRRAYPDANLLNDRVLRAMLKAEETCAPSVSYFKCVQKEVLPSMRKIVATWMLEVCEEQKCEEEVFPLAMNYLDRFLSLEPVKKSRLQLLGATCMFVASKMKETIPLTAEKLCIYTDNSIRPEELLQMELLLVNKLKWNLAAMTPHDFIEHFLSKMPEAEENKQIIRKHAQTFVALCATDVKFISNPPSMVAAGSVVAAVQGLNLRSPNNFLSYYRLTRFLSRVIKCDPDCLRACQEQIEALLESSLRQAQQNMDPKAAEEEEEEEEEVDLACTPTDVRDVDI
Sequence of MAP kinase-activated protein kinase 2 (P49137 whole entry): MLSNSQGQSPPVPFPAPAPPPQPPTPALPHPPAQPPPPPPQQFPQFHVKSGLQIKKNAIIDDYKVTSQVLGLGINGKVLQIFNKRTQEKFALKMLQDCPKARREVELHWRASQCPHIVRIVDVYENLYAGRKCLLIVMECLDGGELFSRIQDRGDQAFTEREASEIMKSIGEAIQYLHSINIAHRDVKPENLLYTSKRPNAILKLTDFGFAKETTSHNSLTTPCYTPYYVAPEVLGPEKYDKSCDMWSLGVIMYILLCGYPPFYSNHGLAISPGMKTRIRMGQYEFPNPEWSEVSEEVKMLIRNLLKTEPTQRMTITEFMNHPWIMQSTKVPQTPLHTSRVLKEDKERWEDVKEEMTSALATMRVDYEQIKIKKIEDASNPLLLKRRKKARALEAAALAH
Sequence of Mitogen-activated protein kinase kinase kinase 8 (P41279 whole entry): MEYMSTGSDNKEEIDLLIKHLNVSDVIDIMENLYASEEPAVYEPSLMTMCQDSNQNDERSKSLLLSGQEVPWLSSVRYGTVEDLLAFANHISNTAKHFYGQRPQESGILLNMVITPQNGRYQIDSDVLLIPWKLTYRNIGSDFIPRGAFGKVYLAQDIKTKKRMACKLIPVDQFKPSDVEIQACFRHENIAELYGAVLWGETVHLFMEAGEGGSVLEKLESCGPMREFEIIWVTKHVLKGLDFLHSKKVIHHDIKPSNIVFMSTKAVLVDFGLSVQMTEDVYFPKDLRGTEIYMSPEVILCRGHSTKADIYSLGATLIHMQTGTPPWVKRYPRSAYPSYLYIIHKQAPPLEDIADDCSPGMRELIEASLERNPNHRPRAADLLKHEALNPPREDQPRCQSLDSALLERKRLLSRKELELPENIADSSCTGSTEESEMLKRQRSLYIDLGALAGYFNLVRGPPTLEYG
Sequence of Tyrosine-protein kinase Lyn (P07948 whole entry): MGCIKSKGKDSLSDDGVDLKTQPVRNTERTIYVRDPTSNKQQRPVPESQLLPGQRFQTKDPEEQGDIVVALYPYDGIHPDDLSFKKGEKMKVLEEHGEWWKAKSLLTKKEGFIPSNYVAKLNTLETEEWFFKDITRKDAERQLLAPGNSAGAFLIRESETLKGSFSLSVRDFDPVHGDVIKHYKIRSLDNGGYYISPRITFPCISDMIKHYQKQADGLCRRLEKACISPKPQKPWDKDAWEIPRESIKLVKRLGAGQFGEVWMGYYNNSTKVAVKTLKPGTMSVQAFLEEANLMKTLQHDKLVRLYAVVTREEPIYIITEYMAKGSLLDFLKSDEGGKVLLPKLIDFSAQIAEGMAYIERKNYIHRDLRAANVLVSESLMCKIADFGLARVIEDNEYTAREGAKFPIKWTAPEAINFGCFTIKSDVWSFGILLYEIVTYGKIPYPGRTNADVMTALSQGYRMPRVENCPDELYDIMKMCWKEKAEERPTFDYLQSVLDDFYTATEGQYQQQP
Sequence of Protein kinase C theta type (Q04759 whole entry): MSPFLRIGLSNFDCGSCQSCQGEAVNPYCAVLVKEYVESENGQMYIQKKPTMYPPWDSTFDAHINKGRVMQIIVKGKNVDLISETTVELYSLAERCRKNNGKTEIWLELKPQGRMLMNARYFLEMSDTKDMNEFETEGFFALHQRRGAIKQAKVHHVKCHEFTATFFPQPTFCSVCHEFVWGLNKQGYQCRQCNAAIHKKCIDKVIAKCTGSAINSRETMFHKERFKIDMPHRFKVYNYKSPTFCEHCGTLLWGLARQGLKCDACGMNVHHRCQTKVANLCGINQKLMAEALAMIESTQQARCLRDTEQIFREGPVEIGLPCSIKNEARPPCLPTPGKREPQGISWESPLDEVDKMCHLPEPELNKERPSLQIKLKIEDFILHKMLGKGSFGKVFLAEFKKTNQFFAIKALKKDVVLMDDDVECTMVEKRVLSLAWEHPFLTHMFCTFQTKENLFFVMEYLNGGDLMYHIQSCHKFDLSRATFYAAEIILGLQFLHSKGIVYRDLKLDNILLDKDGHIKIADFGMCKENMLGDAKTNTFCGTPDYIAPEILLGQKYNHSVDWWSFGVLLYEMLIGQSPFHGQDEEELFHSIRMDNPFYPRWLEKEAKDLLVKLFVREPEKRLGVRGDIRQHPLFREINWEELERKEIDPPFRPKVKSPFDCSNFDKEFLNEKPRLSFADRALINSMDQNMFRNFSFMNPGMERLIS
Sequence of Signal transducer and activator of transcription 3 (P40763 whole entry): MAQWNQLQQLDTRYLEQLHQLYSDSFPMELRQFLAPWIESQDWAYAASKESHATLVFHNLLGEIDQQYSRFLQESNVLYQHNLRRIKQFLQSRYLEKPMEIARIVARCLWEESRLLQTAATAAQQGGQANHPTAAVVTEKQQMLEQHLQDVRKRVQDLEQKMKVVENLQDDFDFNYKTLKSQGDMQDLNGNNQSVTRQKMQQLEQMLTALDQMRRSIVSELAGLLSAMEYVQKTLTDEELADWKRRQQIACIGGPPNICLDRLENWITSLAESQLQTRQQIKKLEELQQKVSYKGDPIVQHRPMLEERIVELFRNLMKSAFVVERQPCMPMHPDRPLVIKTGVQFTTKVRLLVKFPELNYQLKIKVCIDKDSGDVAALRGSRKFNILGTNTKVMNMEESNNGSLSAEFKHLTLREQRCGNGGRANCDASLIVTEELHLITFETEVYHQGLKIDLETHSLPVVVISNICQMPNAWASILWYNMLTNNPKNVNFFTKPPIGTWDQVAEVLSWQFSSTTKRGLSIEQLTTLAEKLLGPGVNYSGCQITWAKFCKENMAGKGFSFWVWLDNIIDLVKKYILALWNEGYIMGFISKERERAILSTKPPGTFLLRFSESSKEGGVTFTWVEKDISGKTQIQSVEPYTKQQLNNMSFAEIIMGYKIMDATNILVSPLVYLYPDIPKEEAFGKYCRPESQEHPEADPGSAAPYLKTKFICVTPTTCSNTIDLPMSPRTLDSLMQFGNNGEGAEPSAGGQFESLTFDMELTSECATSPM
Sequence of Cyclin-dependent kinase 4/cyclin D1 (Homo sapiens, UniProt P11802+P24385) (P11802 whole entry): as the sequence (P11802 whole entry) above
Sequence of Cyclin-dependent kinase 4/cyclin D1 (Homo sapiens, UniProt P11802+P24385) (P24385 whole entry): as the sequence (P24385 whole entry, further chain) above

SMILES	IC50 [1] [nM]	IC50 (MCF7) [nM]	IC50 [2] [nM]	IC50 (HCT-116) [nM]	IC50 [5] [nM]	further results
CCCOc1cnc(CN/C=C2\C(=O)NC(=O)c3ccc(C(C)(C)C)cc32)cc1O	6200	700	20	430	–	–
CCCOc1cnc(CN/C=C2\C(=O)NC(=O)c3ccc(I)cc32)cc1O	25300	880	30	730	–	half-life [3]: > 30 min; half-life [4]: > 30 min
CCCOc1ccc(CN/C=C2\C(=O)NC(=O)c3ccc(I)cc32)nc1O	10100	1400	20	670	700	half-life [3]: > 30 min; half-life [4]: > 30 min
COc1cnc(CN/C=C2\C(=O)NC(=O)c3ccc(I)cc32)cc1O	14700	1000	10	1300	–	half-life [3]: > 30 min; half-life [4]: > 30 min
CCCOc1cnc(CN/C=C2\C(=O)NC(=O)c3ccc(C4CCCC4)cc32)cc1O	3100	300	< 5	150	–	–
CCOc1ccc(CN/C=C2\C(=O)NC(=O)c3ccc(Br)cc32)cc1O	–	–	–	–	–	IC50 [6]: < 50000 nM
Cc1ccc(CN/C=C2\C(=O)NC(=O)c3ccc(I)cc32)cc1O	–	8200	30	6700	13600	–
O=C1NC(=O)c2ccc(I)cc2/C1=C/NCc1cc(O)c(-c2ccoc2)cn1	–	2700	–	550	–	half-life [3]: > 30 min; half-life [4]: 22 min
COc1ccc(CN/C=C2\C(=O)NC(=O)c3ccc(I)cc32)cc1O	–	3700	–	2000	–	half-life [3]: 18 min; half-life [4]: 6 min
COc1ccc(C(C)N/C=C2\C(=O)NC(=O)c3ccc(Br)cc32)cc1O (centres undefined)	–	–	370	–	< 50000	IC50 [6]: < 50000 nM
O=C1NC(=O)c2ccc(Br)cc2/C1=C/NCc1ccc(O)c(O)c1	–	–	40	–	< 50000	IC50 [6]: < 50000 nM
O=C1NC(=O)c2ccc(I)cc2/C1=C/NCc1ccc(-c2ccoc2)c(O)c1	24400	–	60	–	–	IC50 [7]: 19000 nM; IC50 [8]: > 30000 nM; IC50 [9]: > 4000 nM; IC50 [10]: 8500 nM; IC50 [11]: > 30000 nM; IC50 [12]: > 30000 nM; IC50 [13]: 10200 nM; IC50 [14]: 25900 nM; IC50 [15]: 1700 nM; half-life [3]: > 30 min; IC50 [16]: 18000 nM; half-life [4]: 18 min
CCCOc1ccc(CN/C=C2\C(=O)NC(=O)c3ccc(I)cc32)cc1O	> 50000	1800	20	650	2600	half-life [3]: > 30 min; half-life [4]: 15 min
Nc1ccc(CN/C=C2\C(=O)NC(=O)c3ccc(Br)cc32)cc1O	–	–	–	–	–	IC50 [6]: < 50000 nM
COc1coc(CN/C=C2\C(=O)NC(=O)c3ccc(Br)cc32)cc1=O	> 50000	–	1300	–	16900	–
COCCOc1ccc(CN/C=C2\C(=O)NC(=O)c3ccc(Br)cc32)cc1O	–	–	40	–	< 50000	IC50 [6]: < 50000 nM
O=C1NC(=O)c2ccc(I)cc2/C1=C/NCc1ccc(-c2ccco2)c(O)c1	> 50000	700	100	380	–	–
O=C1NC(=O)c2ccc(C3CCCC3)cc2/C1=C/NCc1cc(O)c(-c2ccoc2)cn1	3100	830	< 5	810	–	–
COc1ccc(CN/C=C2\C(=O)NC(=O)c3ccccc32)cc1O	48700	–	190	–	6900	–
O=C1NC(=O)c2ccccc2/C1=C/NCc1ccc(O)cc1	–	–	–	–	17300	IC50 [17]: < 50000 nM
CC(C)(C)c1ccc2c(c1)/C(=C/NCc1cc(O)c(-c3ccoc3)cn1)C(=O)NC2=O	9500	1400	20	480	–	–

SMILES	IC50 [1] [nM]	IC50 (MCF7) [nM]	IC50 [2] [nM]	IC50 (HCT-116) [nM]	IC50 [5] [nM]	further results
O=C1NC(=O)c2ccc(I)cc2/C1=C/NCc1ccc(-c2ccccn2)c(O)c1	> 50000	540	19300	250	> 50000	–
COc1cnc(CN/C=C2\C(=O)NC(=O)c3ccc(I)cc32)nc1O	> 50000	> 50000	440	> 50000	> 50000	–
O=C1NC(=O)c2ccc(I)cc2/C1=C/NCc1ccc(-c2ccncc2)c(O)c1	> 50000	1500	8	2300	> 50000	–
COc1ccc(CN/C=C2\C(=O)NC(=O)c3ccc(-n4cccc4)cc32)cc1O	–	–	–	–	3100	–
COc1cc(CN/C=C2\C(=O)NC(=O)c3ccc(Br)cc32)cc(O)c1OC	–	–	7	–	< 50000	IC50 [6]: < 50000 nM
O=C1NC(=O)c2ccccc2/C1=C/NCCc1ccc(O)c(O)c1	–	–	16200	–	–	–
COc1ccc(CN/C=C2\C(=O)NC(=O)c3ccc(Cl)cc32)cc1O	–	–	–	–	< 50000	IC50 [6]: < 50000 nM
O=C1NC(=O)c2ccc(I)cc2/C1=C/NCc1ccc(-c2ccccc2)c(O)c1	–	880	–	420	–	–
CCCOc1ccc(CN/C=C2\C(=O)NC(=O)c3ccc(Br)cc32)cc1O	–	–	–	–	34500	–
O=C1NC(=O)c2ccccc2/C1=C/NCc1ccc(O)c(O)c1	36600	–	1200	–	–	–
COc1ccc(CN/C=C2\C(=O)NC(=O)c3ccc(Br)cc32)cc1O	–	–	30	–	< 50000	IC50 [6]: < 50000 nM; Ratio IC50 [18]: 1600; Ratio IC50 [19]: 1600
COc1ccc(CN(C)/C=C2\C(=O)NC(=O)c3ccc(Br)cc32)cc1O	–	–	–	–	–	IC50 [6]: < 50000 nM
O=C1NC(=O)c2ccc(I)cc2/C1=C/NCc1ccc(-c2cccnc2)c(O)c1	> 50000	1100	10	440	–	–
COc1ccc(CN/C=C2\C(=O)NC(=O)c3ccc(-c4ccccc4)cc32)cc1O	34700	–	10	–	25900	–
COc1ccc(CN/C=C2\C(=O)NC(=O)c3ccc(-c4ccoc4)cc32)cc1O	–	–	2	–	1100	–
COc1ccc(CN/C=C2\C(=O)NC(=O)c3ccc(-c4ccsc4)cc32)cc1O	–	–	–	–	–	Ratio IC50 [18]: 11000; Ratio IC50 [19]: 9000
COc1ccc(CN/C=C2\C(=O)NC(=O)c3ccc(F)cc32)cc1O	–	–	–	–	6600	IC50 [6]: < 50000 nM
CC(C)(C)c1ccc2c(c1)/C(=C/NCc1cc(O)c(-c3ccccc3)cn1)C(=O)NC2=O	–	700	30	150	–	–
O=C1NC(=O)c2ccccc2/C1=C/NCc1cccc(O)c1	–	–	–	–	16900	IC50 [6]: < 50000 nM
O=C1NC(=O)c2ccc(Br)cc2/C1=C/NCc1cc[nH]c(=O)c1	> 50000	–	–	–	–	–
O=C1NC(=O)c2ccccc2/C1=C/Nc1ccc(O)c(O)c1	–	–	7800	–	–	–
